Data from US5716934A, “Eck receptor ligands” (Amgen Inc., priority 1995, dated 1998).

System: granulation tissue in subcutaneously implanted wound chambers
Test: Rat wound chamber assay (granulation tissue formation)
Format: in vivo
Conditions: for DNA / HYDROXY-PROLINE / TOTAL GYLCOSAMINO-GLYCANS / TOTAL PROTEIN / WET WEIGHT: harvest day 12, mean ± SEM; for increase in hydroxyproline: not statistically significant
Protocol: Male Sprague-Dawley specific pathogen free rats (300-350 g; Charles River Breeding Laboratories, Inc.) were used for this study. Rats were anesthetized with sodium pentobarbital (50 mg/kg body weight) by intraperitoneal injection. Using aseptic surgical technique, a 3 cm midline incision was made on the dorsal surface of the rat. A single pocket was formed under the panniculus carnosis by blunt dissection on one side of the animal. A 3 cm long×1 cm diameter sterile stainless steel wire mesh cylinder was then inserted subcutaneously. The wound chambers used were similar to those described by Schilling et. al. (Surgery 46, 702-710 (1959)) and utilized by Hunt et. al. (Am. J. Surg. 114, 302-307 (1967)) as wound healing models. The incision was closed with wound clips. The rats survived the operation well with no evidence of postoperative discomfort. Beginning 3 days after wound chamber implantation, the rats were randomly divided into 5 groups. At this time daily injections of 1) 10 μg CHO-derived EBP, 2) 1 μg CHO-derived EBP, 3) 8 μg E. coli derived EBP, 4) 5 μg recombinant platelet derived growth factor (PDGF), or 5) 0.1 ml sterile PBS and 1 mM CHAPS were begun and continued for a total of 9 days. The injections were made directly into the wound chamber through a silicone septum at the outer edge of the chamber. Twelve days after chamber implantation, the rats were sacrificed by CO2 asphyxiation. Immediately after sacrifice, the chambers were removed surgically and carefully opened. The enclosed granulation tissue was then weighed, and stored at -70° C. for future processing.
Granulation tissue samples were thawed and homogenized with a Polytron homogenizer in 2 ml of ice-cold distilled water for approximately 1 minute. Next, 2 ml of ice-cold 10% trichloroacetic acid was added to the homogenate and incubated at 4° C. for 1 hour. The TCA-precipitated samples were centrifuged (500 g, 10 minutes) at 4° C., washed once with 2 ml of ice-cold 5% TCA, and finally washed with 2 ml of ice-cold 95% ethanol containing 50 mM sodium acetate. Samples were defatted twice with 2 ml of ethanol:ether (3:1, v/v) at 20° C. After each defatting procedure, samples were centrifuged (500×g, 10 minutes) and the supernate discarded. The pellet was then dissolved in 1N sodium hydroxide and brought up to a volume of 10 ml.
Total protein was determined by taking an aliquot of the solubilized granulation tissue and assaying the sample according to the method of Bradford (Anal. Biochem. 72, 248-251 (1976)) Bovine serum albumin (Sigma Chemical Co., St. Louis, Mo.) was used for a protein standard curve.
Total DNA content was determined as deoxy-ribose by the colorimetric method of Burton (Biochem. J. 62, 315 (1956)). Briefly, a 1 ml aliquot of the solubilized sample (in 1N NaOH) was neutralized with the addition of 0.5 ml of 2N HCl. A 1 ml aliquot of the neutralized solution was extracted in 10% perchloric acid at 90° C. for 15 minutes. A 1 ml portion of the final extract was added to 2 ml activated diphenylamine (Sigma Chemical, St. Louis, Mo.) reagent and absorbance at 600 nm was measured after overnight incubation at room temperature. Hydrolyzed calf thymus DNA (Sigma) was used to construct the standard curve. The DNA content was measured as a rough index of the number of cells in the wound chamber, with the realization that cell type and cell cycle status also influence DNA content.
Total glycosaminoglycans (GAGs) were determined using chondroitin sulfate as a standard. A spectrophotometric assay for GAGs was run utilizing a change in absorption spectrum of the dye 1,9- dimethyl methylene blue (Farndale et al. Conn. Tiss. Res. 9, 247-248 (1982)).
Total collagen content was determined as hydroxyproline (an index of collagen content) after hydrolysis of the solubilized granulation tissue in 6N HCl at 110° C. for 24 hours. […]

[1] = 1 μg per chamber per day x 9 days
[2] = 1 μg per chamber per day x 9 days, listed as CHO-derived rEBP
[3] = 10 μg per chamber per day x 9 days
[4] = 10 μg per chamber per day x 9 days, listed as CHO-derived rEBP

CHO-EBP: recombinant EBP purified from supernatants of CHO cells transfected with the EBP gene; mainly EBP^1-150 and EBP^1-159
DNA [1]: 232 ± 41 µg | HYDROXY-PROLINE [1]: 318.7 ± 31.7 µg | TOTAL GYLCOSAMINO-GLYCANS [1]: 589.2 ± 68.4 µg | TOTAL PROTEIN [1]: 3.88 ± 0.44 mg | WET WEIGHT [1]: 238.0 ± 24.1 mg | DNA [2]: no significant differences | HYDROXY-PROLINE [2]: no significant differences | TOTAL GYLCOSAMINO-GLYCANS [2]: significant increase | TOTAL PROTEIN [2]: no significant differences | WET WEIGHT [2]: significant increase | increase in hydroxyproline (1 μg/chamber/day): 21% | DNA [3]: 650 ± 163 µg | HYDROXY-PROLINE [3]: 354.5 ± 63.7 µg | TOTAL GYLCOSAMINO-GLYCANS [3]: 627.9 ± 92.4 µg | TOTAL PROTEIN [3]: 7.15 ± 1.23 mg | WET WEIGHT [3]: 398.2 ± 70.9 mg | DNA [4]: significantly increased | TOTAL GYLCOSAMINO-GLYCANS [4]: significantly increased | TOTAL PROTEIN [4]: significantly increased | WET WEIGHT [4]: significantly increased | increase in hydroxyproline (10 μg/chamber/day): 35%
